Source: patent US20260070917A1, “CYCLIN DEPENDENT KINASE DEGRADERS AND METHODS OF USE THEREOF” (Differentiated Therapeutics Inc, priority 2023, published 2026)

What was measured:
Format in all cases: cell-based
CDK9 = target: T1, CDK9 (Homo sapiens, UniProt P50750); assay: HiBit Assay Protocol for CDK9 (HIBIT protein quantification, degradation); conditions: HEK293-CDK9-Hibit cells, compound treatment for 6 hours; for Dmax: 6 h, read-out: CDK9 HIBIT Protein Quantification Maximum; for DC50: ABS DC50
T1 construct: host or cells: HEK293-CDK9-Hibit
T1 sequence (P50750 whole entry): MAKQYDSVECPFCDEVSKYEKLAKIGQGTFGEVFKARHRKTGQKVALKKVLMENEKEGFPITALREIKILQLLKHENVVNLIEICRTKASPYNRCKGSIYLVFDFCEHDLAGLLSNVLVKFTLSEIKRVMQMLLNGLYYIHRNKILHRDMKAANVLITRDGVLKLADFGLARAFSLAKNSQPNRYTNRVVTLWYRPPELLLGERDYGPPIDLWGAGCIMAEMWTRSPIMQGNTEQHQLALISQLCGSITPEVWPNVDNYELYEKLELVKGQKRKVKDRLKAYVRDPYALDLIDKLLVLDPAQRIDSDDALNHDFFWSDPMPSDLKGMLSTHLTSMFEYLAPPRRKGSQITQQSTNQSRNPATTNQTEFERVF
Protocol: HiBit Assay Protocol for CDK9
• 1. The culture medium for HEK293-CDK9-Hibit cell was prepared using DMEM with 10% FBS. • 2. Cells were cultivated in T-75 flasks in a cell culture incubator set at 37° C., 5% CO2, 95% relative humidity. Cells were allowed to reach 80-90% confluence before detaching and splitting. • 3. Cultivated cells were rinsed in T-75 flasks with 5 mL PBS. Aspirated off. Added 1.5 mL trypsin, and incubated the cells at 37° C. for approximately 5 minutes or until the cells detached and floated. • 4. Trypsin was inactivated by adding excess serum containing medium. • 5. Cells were harvested from flask into cell culture medium and then the cell number was counted. HEK293-CDK9-Hibit cells were seeded into 384-well plate (cell density: 1.6×10^5 cells/well/50 uL medium) in DMEM medium according to the plate map below and were incubated overnight at 37° C. and 5% CO2. • Note: Cell Cultured Medium: 90% DMEM+10% FBS+1% Penicillin-Streptomycin Liquid
• 1. Test compounds were dissolved at 3 mM DMSO stock solution. Transferred 45 uL of stock solution to a 384 pp-plate. Perform 3-fold, 10-point dilution via transferring 15 uL compound into 30 uL DMSO by using TECAN liquid handler. • 2. The plates were spinned at room temperature at 1,000 RPM for 1 minute. • 3. Transferred 50 nL of diluted compound from compound source plate into the cell plate by Echo. • 4. After compound treatment for 6 hours, removed the plate from incubators and equilibrated at room temperature for 15 minutes. Prepared the HiBit reagent consists of the following ratios: 10 mL of Nano-Glo®-HiBiT Lytic Buffer, 200 uL of Nano-Glo®-HiBiT Lytic Substrate and 100 uL of LgBiT Protein, mixed thoroughly. Added 20 uL of HiBit reagent into each well and spinned the plates at room temperature at 1,000 RPM for 1 minute to be detected. Plates were then shaken at 600 RPM at room temperature for 20 minutes, and read by EnVision. • 5. The inhibition activity was calculated following the formula below:
[formula] • Note: Where HC was obtained from cells treated with 0.1% DMSO only; LC was obtained from culture medium only. • 6. The ABS DC50 was calculated by fitting the Curve using Xlfit (v5.3.1.3), equation 201: […]

CCNE1 = target: T2, CCNE1 (Homo sapiens, UniProt P24864); assay: HiBit Assay Protocol for CCNE1 (HIBIT protein quantification, degradation); conditions: HEK293-CCNE1-Hibit cells, compound treatment for 6 hours
T2 construct: host or cells: HEK293-CCNE1-Hibit
T2 sequence (P24864 whole entry): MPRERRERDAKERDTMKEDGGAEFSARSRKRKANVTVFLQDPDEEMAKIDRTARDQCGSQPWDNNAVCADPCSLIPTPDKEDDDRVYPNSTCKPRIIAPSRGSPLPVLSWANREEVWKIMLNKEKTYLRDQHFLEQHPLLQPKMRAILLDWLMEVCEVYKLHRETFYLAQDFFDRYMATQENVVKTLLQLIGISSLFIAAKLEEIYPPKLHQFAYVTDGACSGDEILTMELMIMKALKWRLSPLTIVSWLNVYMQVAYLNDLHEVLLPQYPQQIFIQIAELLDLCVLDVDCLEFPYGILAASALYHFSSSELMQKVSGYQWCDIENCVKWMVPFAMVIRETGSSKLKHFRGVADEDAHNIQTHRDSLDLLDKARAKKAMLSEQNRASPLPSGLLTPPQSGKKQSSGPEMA
In short: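 Degradation readout: lytic Nano-Glo HiBiT luminescence after 6 h exposure of HEK293-CCNE1-HiBiT cells to 10-point, 3-fold serial dilutions. Signal was scaled between medium-only and DMSO-treated wells, and DC50 came from curve fits.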

CDK2 = target: T3, CDK2 (Homo sapiens, UniProt P24941); assay: HiBit Assay Protocol for CDK2 (HIBIT protein quantification, degradation); conditions: HEK293-CDK2-Hibit cells, compound treatment for 6 hours; for DC50: ABS DC50
T3 construct: host or cells: HEK293-CDK2-Hibit
In short: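 DC50 comes from a fitted curve of remaining CDK2-HiBiT luminescence, referenced to DMSO-treated cells and medium-only wells. HEK293-CDK2-HiBiT cells, plated the previous night, received compounds in a 10-point, 3-fold series for 6 h before lysis with LgBiT-containing Nano-Glo HiBiT reagent.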

| SMILES | Dmax (CDK9) | CCNE1 HIBIT Protein Quantification Maximum (CCNE1) | CDK2 HIBIT Protein Quantification Maximum (CDK2) | DC50 (CDK9) | DC50 (CDK2) |
| --- | --- | --- | --- | --- | --- |
| CC1CCCC1N1C(=O)C2(CC2)c2cnc(NC3CCN(S(=O)(=O)N4CCCN(C(=O)CCCc5cccc6c5n(C)c(=O)n6C5CCC(=O)NC5=O)CC4)CC3)nc21 (centres unmarked) [Compound 33] | 4% | 9% | 42% |  |  |
| CC1CCCC1N1C(=O)C2(CC2)c2cnc(NC3CCN(S(=O)(=O)N4CC(N(C)C(=O)CCCCCc5cccc6c5n(C)c(=O)n6C5CCC(=O)NC5=O)C4)CC3)nc21 (centres unmarked) [Compound 34] | 61% | 44% | 72% | 13.6 nM | 6 nM |
| CC1CCCC1N1C(=O)C2(CC2)c2cnc(NC3CCN(S(=O)(=O)N4CCCC45CCN(C(=O)CCCCCc4cccc6c4n(C)c(=O)n6C4CCC(=O)NC4=O)C5)CC3)nc21 (centres unmarked) [Compound 35] | 17% | 21% | 34% |  |  |
| CC1CCCC1N1C(=O)C2(CC2)c2cnc(NC3CCN(S(=O)(=O)N4CC5(CCCCN5C(=O)CCCCCc5cccc6c5n(C)c(=O)n6C5CCC(=O)NC5=O)C4)CC3)nc21 (centres unmarked) [Compound 37] | 0% | 30% | 40% |  |  |
| CC1CCCC1N1C(=O)C2(CC2)c2cnc(NC3CCN(S(=O)(=O)N4CCN(C(=O)CCCCCc5cccc6c5n(C)c(=O)n6C5CCC(=O)NC5=O)CC4)CC3)nc21 (centres unmarked) [Compound 38] | 57% | 46% | 71% | 23 nM | 4 nM |
| CC1CCCC1N1C(=O)C2(CC2)c2cnc(NC3CCN(S(=O)(=O)N4CC5(CCCN(C(=O)CCCCCc6cccc7c6n(C)c(=O)n7C6CCC(=O)NC6=O)C5)C4)CC3)nc21 (centres unmarked) [Compound 39] | 6% | 9% | 54% |  | 7 nM |
| CC1CCCC1N1C(=O)C2(CC2)c2cnc(NC3CCN(S(=O)(=O)N4CC5(CCN(C(=O)CCCCCc6cccc7c6n(C)c(=O)n7C6CCC(=O)NC6=O)CC5)C4)CC3)nc21 (centres unmarked) [Compound 40] | 44% | 29% | 69% |  | 5 nM |
| CC1CCCC1N1C(=O)C2(CC2)c2cnc(NC3CCN(S(=O)(=O)N4CCC5(CCN(C(=O)CCCCCc6cccc7c6n(C)c(=O)n7C6CCC(=O)NC6=O)C5)C4)CC3)nc21 (centres unmarked) [Compound 42] | 17% | 23% | 70% |  | 7 nM |
| CC1CCCC1N1C(=O)C2(CC2)c2cnc(NC3CCN(S(=O)(=O)N4CCCN(C(=O)CCCCCc5cccc6c5n(C)c(=O)n6C5CCC(=O)NC5=O)CC4)CC3)nc21 (centres unmarked) [Compound 43] | 32% | 62% | 60% |  | 16 nM |
| CC1CCCC1N1C(=O)C2(CC2)c2cnc(NC3CCN(S(=O)(=O)C4CCCN(C(=O)CCCCCc5cccc6c5n(C)c(=O)n6C5CCC(=O)NC5=O)C4)CC3)nc21 (centres unmarked) [Compound 44] | 5% | 44% | 39% |  |  |
| CC1CCCC1N1C(=O)C2(CC2)c2cnc(NC3CCN(S(=O)(=O)N4CCN(C(=O)CCCCCCCc5cccc6c5n(C)c(=O)n6C5CCC(=O)NC5=O)CC4)CC3)nc21 (centres unmarked) [Compound 46] | 44% | 35% | 74% |  | 5 nM |
| CC1CCCC1N1C(=O)C2(CC2)c2cnc(NC3CCN(S(=O)(=O)N4CCC5(CCN(C(=O)CCCCCCCc6cccc7c6n(C)c(=O)n7C6CCC(=O)NC6=O)C5)C4)CC3)nc21 (centres unmarked) [Compound 47] | 10% | 18% | 44% |  |  |
| CC1CCCC1N1C(=O)C2(CC2)c2cnc(NC3CCN(S(=O)(=O)C4CCCN(C(=O)CCCCCCCc5cccc6c5n(C)c(=O)n6C5CCC(=O)NC5=O)C4)CC3)nc21 (centres unmarked) [Compound 48] | 15% | 42% | 35% |  |  |
| CC1CCCC1N1C(=O)C2(CC2)c2cnc(NC3CCN(S(=O)(=O)N4CC(N(C)C(=O)CCCCCCCCCc5cccc6c5n(C)c(=O)n6C5CCC(=O)NC5=O)C4)CC3)nc21 (centres unmarked) [Compound 49] | 66% | 8% | 62% | 6.53 nM | 34 nM |
| CC1CCCC1N1C(=O)C2(CC2)c2cnc(NC3CCN(S(=O)(=O)N4CC5(CCCN(C(=O)CCCCCCCCCc6cccc7c6n(C)c(=O)n7C6CCC(=O)NC6=O)C5)C4)CC3)nc21 (centres unmarked) [Compound 50] | 17% | 16% | 37% |  |  |
| CC1CCCC1N1C(=O)C2(CC2)c2cnc(NC3CCN(S(=O)(=O)N4CC5(CCN(C(=O)CCCCCCCCCc6cccc7c6n(C)c(=O)n7C6CCC(=O)NC6=O)CC5)C4)CC3)nc21 (centres unmarked) [Compound 51] | 41% | 40% | 56% |  | 53 nM |
| CC1CCCC1N1C(=O)C2(CC2)c2cnc(NC3CCN(S(=O)(=O)N4CCC5(CCN(C(=O)CCCCCCCCCc6cccc7c6n(C)c(=O)n7C6CCC(=O)NC6=O)C5)C4)CC3)nc21 (centres unmarked) [Compound 52] | 29% | 19% | 56% |  | 2 nM |
| CC1CCCC1N1C(=O)C2(CC2)c2cnc(NC3CCN(S(=O)(=O)C4CCN(C(=O)CCCCCCCCCc5cccc6c5n(C)c(=O)n6C5CCC(=O)NC5=O)C4)CC3)nc21 (centres unmarked) [Compound 53] | 36% | 46% | 62% |  | 10 nM |
| CC1CCCC1N1C(=O)C2(CC2)c2cnc(NC3CCN(S(=O)(=O)N4CC5CN(C(=O)CCc6ccc7c(c6)n(C)c(=O)n7C6CCC(=O)NC6=O)CC5C4)CC3)nc21 (centres unmarked) [Compound 55] | 8% | 13% | 25% |  |  |
| CC1CCCC1N1C(=O)C2(CC2)c2cnc(NC3CCN(S(=O)(=O)N4CCC5(CCCN5C(=O)CCc5ccc6c(c5)n(C)c(=O)n6C5CCC(=O)NC5=O)C4)CC3)nc21 (centres unmarked) [Compound 56] | 15% | 19% | 41% |  |  |
| CC1CCCC1N1C(=O)C2(CC2)c2cnc(NC3CCN(S(=O)(=O)N4CC5(CCCN(C(=O)CCc6ccc7c(c6)n(C)c(=O)n7C6CCC(=O)NC6=O)C5)C4)CC3)nc21 (centres unmarked) [Compound 57] | 15% | 22% | 53% |  |  |
| CC1CCCC1N1C(=O)C2(CC2)c2cnc(NC3CCN(S(=O)(=O)N4CC5(CN(C(=O)CCc6ccc7c(c6)n(C)c(=O)n7C6CCC(=O)NC6=O)C5)C4)CC3)nc21 (centres unmarked) [Compound 58] | 9% | 10% | 12% |  |  |
| CC1CCCC1N1C(=O)C2(CC2)c2cnc(NC3CCN(S(=O)(=O)N4CC5(CCN(C(=O)CCc6ccc7c(c6)n(C)c(=O)n7C6CCC(=O)NC6=O)CC5)C4)CC3)nc21 (centres unmarked) [Compound 59] | 17% | 24% | 46% |  |  |
| CC1CCCC1N1C(=O)C2(CC2)c2cnc(NC3CCN(S(=O)(=O)N4CCC5(CCN(C(=O)CCc6ccc7c(c6)n(C)c(=O)n7C6CCC(=O)NC6=O)C5)C4)CC3)nc21 (centres unmarked) [Compound 60] | 28% | 17% | 18% |  |  |
